What was measured:
Assay type in all cases: ADME
Liver microsomes [1] = test: Metabolic stability in human liver microsome at 10 uM in the presence of NADPH assessed as level of metabolites after 5 mins by LC-MS analysis
Liver microsomes [2] = test: Metabolic stability in heat inactivated human liver microsome at 10 uM after 15 mins in the presence of NADPH by LC-MS analysis; conditions: 0.25 h
Liver microsomes [3] = test: Metabolic stability in human liver microsome at 10 uM after 15 mins in the absence of NADPH by LC-MS analysis; conditions: 0.25 h
Liver microsomes [4] = test: Metabolic stability in human liver microsome at 10 uM in the presence of NADPH assessed as level of metabolites after 1 mins by LC-MS analysis

With `C=C/C=C\[C@H](C)[C@H](OC(N)=O)[C@@H](C)[C@H](O)[C@@H](C)C/C(C)=C\[C@H](C)[C@@H](O)[C@@H](C)/C=C\[C@@H](O)C[C@@H]1OC(=O)[C@H](C)[C@@H](O)[C@H]1C` [DISERMOLIDE] the Stability (Liver microsomes [1]) was “Unstable”, the Stability (Liver microsomes [2]) was “Stable” and the Stability (Liver microsomes [3]) was “Stable”. For the same compound, the Stability (Liver microsomes [4]) was “Unstable”.
